# Tested on: 377384-186-R-J1-PDC complex spheroid viability
# Assay: Anticancer human tumor 377384-186-R-J1-PDC patient-derived pancreatic carcinoma cell line growth inhibition [CLK]
# Details: for IC50: curve of first compound; for viability, T/C: stronger effect = lower value
# In short: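 Multi-cell-type spheroids combined patient-derived tumor cells with HUVEC endothelial cells and human mesenchymal stem cells. Paired agents were dosed in half-log steps down from about clinical Cmax, or from 10 microM where Cmax was unknown.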
# [1] = second compound 0.0316 µM, first compound 0.0316 µM
# [2] = second compound 0.0316 µM, first compound 0.1 µM
# [3] = second compound 0.0316 µM, first compound 0.316 µM
# [4] = second compound 0.0316 µM, first compound 1 µM
# [5] = second compound 0.0316 µM, first compound 3.16 µM
# [6] = second compound 0.0316 µM, first compound 10 µM
# [7] = second compound 0.1 µM, first compound 0.0316 µM
# [8] = second compound 0.1 µM, first compound 0.1 µM
# [9] = second compound 0.1 µM, first compound 0.316 µM
# [10] = second compound 0.1 µM, first compound 1 µM
# [11] = second compound 0.1 µM, first compound 3.16 µM
# [12] = second compound 0.1 µM, first compound 10 µM
# [13] = second compound 0.316 µM, first compound 0.0316 µM
# [14] = second compound 0.316 µM, first compound 0.1 µM
# [15] = second compound 0.316 µM, first compound 0.316 µM
# [16] = second compound 0.316 µM, first compound 1 µM
# [17] = second compound 0.316 µM, first compound 3.16 µM
# [18] = second compound 0.316 µM, first compound 10 µM
# [19] = second compound 1 µM, first compound 0.0316 µM
# [20] = second compound 1 µM, first compound 0.1 µM
# [21] = second compound 1 µM, first compound 0.316 µM
# [22] = second compound 1 µM, first compound 1 µM
# [23] = second compound 1 µM, first compound 3.16 µM
# [24] = second compound 1 µM, first compound 10 µM
# [25] = second compound 3.16 µM, first compound 0.0316 µM
# [26] = second compound 3.16 µM, first compound 0.1 µM
# [27] = second compound 3.16 µM, first compound 0.316 µM
# [28] = second compound 3.16 µM, first compound 1 µM
# [29] = second compound 3.16 µM, first compound 3.16 µM
# [30] = second compound 3.16 µM, first compound 10 µM
# [31] = second compound 10 µM, first compound 0.0316 µM
# [32] = second compound 10 µM, first compound 0.1 µM
# [33] = second compound 10 µM, first compound 0.316 µM
# [34] = second compound 10 µM, first compound 1 µM
# [35] = second compound 10 µM, first compound 3.16 µM
# [36] = second compound 10 µM, first compound 10 µM
# 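Note: spheroids exposed to agents for 7 days before reading.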
# 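Throughout, for viability, T/C: luminescence signal used as a stand-in for viable cells.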
smiles,measurement,setting,value
CC(=O)O[C@H]1C(=O)[C@@]2(C)[C@H]([C@H](OC(=O)c3ccccc3)[C@]3(O)C[C@H](OC(=O)[C@H](O)[C@@H](NC(=O)c4ccccc4)c4ccccc4)C(C)=C1C3(C)C)[C@]1(OC(C)=O)CO[C@@H]1C[C@@H]2O + CN1CCN(c2cc(C(=O)Nc3cc4cc(-c5cnn(C)c5)ccc4cn3)ccn2)CC1,IC50,second compound 0.0316 µM,< 31.6 nM
same,IC50,second compound 0.1 µM,< 31.6 nM
same,IC50,second compound 0.316 µM,< 31.6 nM
same,IC50,second compound 1 µM,< 31.6 nM
same,IC50,second compound 3.16 µM,< 31.6 nM
same,IC50,second compound 10 µM,< 31.6 nM
same,"viability, T/C",[1],9.18%
same,"viability, T/C",[2],9.07%
same,"viability, T/C",[3],7.15%
same,"viability, T/C",[4],8.23%
same,"viability, T/C",[5],10.1%
same,"viability, T/C",[6],14.8%
same,"viability, T/C",[7],7.97%
same,"viability, T/C",[8],9.15%
same,"viability, T/C",[9],10.9%
same,"viability, T/C",[10],10.7%
same,"viability, T/C",[11],8.46%
same,"viability, T/C",[12],15.1%
same,"viability, T/C",[13],9.05%
same,"viability, T/C",[14],9.91%
same,"viability, T/C",[15],10.6%
same,"viability, T/C",[16],11.4%
same,"viability, T/C",[17],15.1%
same,"viability, T/C",[18],14.1%
same,"viability, T/C",[19],0.76%
same,"viability, T/C",[20],0.53%
same,"viability, T/C",[21],1.35%
same,"viability, T/C",[22],0.93%
same,"viability, T/C",[23],0.78%
same,"viability, T/C",[24],1.13%
same,"viability, T/C",[25],0.39%
same,"viability, T/C",[26],0.51%
same,"viability, T/C",[27],0.58%
same,"viability, T/C",[28],0.7%
same,"viability, T/C",[29],1.32%
same,"viability, T/C",[30],2.27%
same,"viability, T/C",[31],0.34%
same,"viability, T/C",[32],0.28%
same,"viability, T/C",[33],0.49%
same,"viability, T/C",[34],0.48%
same,"viability, T/C",[35],0.4%
same,"viability, T/C",[36],0.37%
CCc1c2c(nc3ccc(O)cc13)-c1cc3c(c(=O)n1C2)COC(=O)[C@]3(O)CC + CN1CCN(c2cc(C(=O)Nc3cc4cc(-c5cnn(C)c5)ccc4cn3)ccn2)CC1,IC50,second compound 0.0316 µM,< 3.16 nM
same,IC50,second compound 0.1 µM,< 3.16 nM
same,IC50,second compound 0.316 µM,< 3.16 nM
same,IC50,second compound 1 µM,< 3.16 nM
same,IC50,second compound 3.16 µM,< 3.16 nM
same,IC50,second compound 10 µM,< 3.16 nM
same,"viability, T/C","second compound 0.0316 µM, first compound 0.00316 µM",38.2%
same,"viability, T/C","second compound 0.0316 µM, first compound 0.01 µM",16.4%
same,"viability, T/C",[1],9%
same,"viability, T/C",[2],3.5%
same,"viability, T/C",[3],2%
same,"viability, T/C",[4],0.73%
same,"viability, T/C","second compound 0.1 µM, first compound 0.00316 µM",31.7%
same,"viability, T/C","second compound 0.1 µM, first compound 0.01 µM",18.6%
same,"viability, T/C",[7],8.13%
same,"viability, T/C",[8],3.62%
same,"viability, T/C",[9],1.47%
same,"viability, T/C",[10],0.71%
same,"viability, T/C","second compound 0.316 µM, first compound 0.00316 µM",18.3%
same,"viability, T/C","second compound 0.316 µM, first compound 0.01 µM",15%
same,"viability, T/C",[13],7.22%
same,"viability, T/C",[14],4.37%
same,"viability, T/C",[15],1.79%
same,"viability, T/C",[16],0.66%
same,"viability, T/C","second compound 1 µM, first compound 0.00316 µM",0.56%
same,"viability, T/C","second compound 1 µM, first compound 0.01 µM",0.36%
same,"viability, T/C",[19],1.07%
same,"viability, T/C",[20],0.19%
same,"viability, T/C",[21],0.14%
same,"viability, T/C",[22],0.3%
same,"viability, T/C","second compound 3.16 µM, first compound 0.00316 µM",0.23%
same,"viability, T/C","second compound 3.16 µM, first compound 0.01 µM",0.3%
same,"viability, T/C",[25],0.53%
same,"viability, T/C",[26],0.25%
same,"viability, T/C",[27],0.38%
same,"viability, T/C",[28],0.85%
same,"viability, T/C","second compound 10 µM, first compound 0.00316 µM",0.27%
same,"viability, T/C","second compound 10 µM, first compound 0.01 µM",1.05%
same,"viability, T/C",[31],0.38%
same,"viability, T/C",[32],0.27%
same,"viability, T/C",[33],0.23%
same,"viability, T/C",[34],0.35%
COc1cccc2c1C(=O)c1c(O)c3c(c(O)c1C2=O)CC(O)(C(=O)CO)CC3OC1CC(N)C(O)C(C)O1 (stereo unspecified) + CN1CCN(c2cc(C(=O)Nc3cc4cc(-c5cnn(C)c5)ccc4cn3)ccn2)CC1,IC50,second compound 0.0316 µM,< 31.6 nM
same,IC50,second compound 0.1 µM,< 31.6 nM
same,IC50,second compound 0.316 µM,< 31.6 nM
same,IC50,second compound 1 µM,< 31.6 nM
same,IC50,second compound 3.16 µM,< 31.6 nM
same,IC50,second compound 10 µM,< 31.6 nM
same,"viability, T/C",[1],16.3%
same,"viability, T/C",[2],7.2%
same,"viability, T/C",[3],1.82%
same,"viability, T/C",[4],0.52%
same,"viability, T/C",[5],3.08%
same,"viability, T/C",[6],7.38%
same,"viability, T/C",[7],17.7%
same,"viability, T/C",[8],5.86%
same,"viability, T/C",[9],1.2%
same,"viability, T/C",[10],0.36%
same,"viability, T/C",[11],4.01%
same,"viability, T/C",[12],8.5%
same,"viability, T/C",[13],15.2%
same,"viability, T/C",[14],4.88%
same,"viability, T/C",[15],0.54%
same,"viability, T/C",[16],0.77%
same,"viability, T/C",[17],3.95%
same,"viability, T/C",[18],9.46%
same,"viability, T/C",[19],0.41%
same,"viability, T/C",[20],0.53%
same,"viability, T/C",[21],0.23%
same,"viability, T/C",[22],1.24%
same,"viability, T/C",[23],3.93%
same,"viability, T/C",[24],8.63%
same,"viability, T/C",[25],0.22%
same,"viability, T/C",[26],0.41%
same,"viability, T/C",[27],1.02%
same,"viability, T/C",[28],1.45%
same,"viability, T/C",[29],6.27%
same,"viability, T/C",[30],9.38%
same,"viability, T/C",[31],0.49%
same,"viability, T/C",[32],0.33%
same,"viability, T/C",[33],1.94%
same,"viability, T/C",[34],0.34%
same,"viability, T/C",[35],0.53%
same,"viability, T/C",[36],0.18%

# From PubChem BioAssay AID2060616 (Molecular Pharmacology Branch, DTP, NCI, 2025)
